Laboratory results as given in PMC3755730 (The Journal of neuroscience : the official journal of the …, 2013).

Key:
[1] = target: N2B (GluN2B), in N1/N2B (B-type) NMDA receptor (Mus musculus, UniProt Q01097); experiment: whole-cell patch clamp, EPSC dose-inhibition in N2A knockout neurons; assay type: cell-based
[2] = target: N2A (GluN2A), in N1/N2A (A-type) NMDA receptor (Mus musculus, UniProt P35436); experiment: whole-cell patch clamp, EPSC dose-inhibition in N2B knockout neurons; assay type: cell-based
Chain of N2A (GluN2A), in N1/N2A (A-type) NMDA receptor (P35436 23-1464, other chains not shown): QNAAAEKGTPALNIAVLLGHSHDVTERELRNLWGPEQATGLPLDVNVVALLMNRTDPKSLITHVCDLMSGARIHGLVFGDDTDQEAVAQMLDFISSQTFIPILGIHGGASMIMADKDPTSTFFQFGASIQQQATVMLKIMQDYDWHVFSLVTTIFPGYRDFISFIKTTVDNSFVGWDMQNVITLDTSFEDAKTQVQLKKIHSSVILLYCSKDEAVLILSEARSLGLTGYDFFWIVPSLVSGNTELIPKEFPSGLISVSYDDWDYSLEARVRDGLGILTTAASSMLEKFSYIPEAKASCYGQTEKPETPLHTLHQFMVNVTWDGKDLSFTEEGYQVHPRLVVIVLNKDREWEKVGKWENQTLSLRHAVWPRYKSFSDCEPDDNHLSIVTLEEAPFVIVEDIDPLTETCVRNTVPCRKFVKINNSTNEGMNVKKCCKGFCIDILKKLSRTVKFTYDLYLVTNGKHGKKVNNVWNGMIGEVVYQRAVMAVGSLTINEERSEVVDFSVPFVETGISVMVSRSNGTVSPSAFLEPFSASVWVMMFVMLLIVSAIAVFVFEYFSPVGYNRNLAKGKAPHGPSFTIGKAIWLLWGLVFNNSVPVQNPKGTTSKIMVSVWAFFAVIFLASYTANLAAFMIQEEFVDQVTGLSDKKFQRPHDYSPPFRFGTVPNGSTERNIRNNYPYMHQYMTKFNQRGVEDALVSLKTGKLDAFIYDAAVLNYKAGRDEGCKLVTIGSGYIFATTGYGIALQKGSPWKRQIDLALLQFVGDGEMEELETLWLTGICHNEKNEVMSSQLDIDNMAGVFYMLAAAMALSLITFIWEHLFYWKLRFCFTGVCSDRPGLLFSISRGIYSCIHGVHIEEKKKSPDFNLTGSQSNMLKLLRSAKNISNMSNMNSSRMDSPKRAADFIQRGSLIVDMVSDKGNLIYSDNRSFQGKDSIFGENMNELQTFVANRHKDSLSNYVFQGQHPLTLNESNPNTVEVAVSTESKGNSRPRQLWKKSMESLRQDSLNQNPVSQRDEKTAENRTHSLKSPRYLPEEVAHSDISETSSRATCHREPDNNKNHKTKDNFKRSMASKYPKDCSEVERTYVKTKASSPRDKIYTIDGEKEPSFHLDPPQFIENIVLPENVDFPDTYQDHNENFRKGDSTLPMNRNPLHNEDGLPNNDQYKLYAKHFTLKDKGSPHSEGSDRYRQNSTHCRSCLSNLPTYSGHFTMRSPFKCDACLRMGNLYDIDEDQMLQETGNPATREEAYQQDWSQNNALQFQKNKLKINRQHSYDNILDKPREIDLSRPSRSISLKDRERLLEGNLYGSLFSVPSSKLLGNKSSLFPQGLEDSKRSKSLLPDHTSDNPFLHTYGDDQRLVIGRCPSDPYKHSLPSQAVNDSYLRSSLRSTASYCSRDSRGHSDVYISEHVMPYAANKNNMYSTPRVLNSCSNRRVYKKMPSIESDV

Chain of N2B (GluN2B), in N1/N2B (B-type) NMDA receptor (Q01097 27-1482, other chains not shown): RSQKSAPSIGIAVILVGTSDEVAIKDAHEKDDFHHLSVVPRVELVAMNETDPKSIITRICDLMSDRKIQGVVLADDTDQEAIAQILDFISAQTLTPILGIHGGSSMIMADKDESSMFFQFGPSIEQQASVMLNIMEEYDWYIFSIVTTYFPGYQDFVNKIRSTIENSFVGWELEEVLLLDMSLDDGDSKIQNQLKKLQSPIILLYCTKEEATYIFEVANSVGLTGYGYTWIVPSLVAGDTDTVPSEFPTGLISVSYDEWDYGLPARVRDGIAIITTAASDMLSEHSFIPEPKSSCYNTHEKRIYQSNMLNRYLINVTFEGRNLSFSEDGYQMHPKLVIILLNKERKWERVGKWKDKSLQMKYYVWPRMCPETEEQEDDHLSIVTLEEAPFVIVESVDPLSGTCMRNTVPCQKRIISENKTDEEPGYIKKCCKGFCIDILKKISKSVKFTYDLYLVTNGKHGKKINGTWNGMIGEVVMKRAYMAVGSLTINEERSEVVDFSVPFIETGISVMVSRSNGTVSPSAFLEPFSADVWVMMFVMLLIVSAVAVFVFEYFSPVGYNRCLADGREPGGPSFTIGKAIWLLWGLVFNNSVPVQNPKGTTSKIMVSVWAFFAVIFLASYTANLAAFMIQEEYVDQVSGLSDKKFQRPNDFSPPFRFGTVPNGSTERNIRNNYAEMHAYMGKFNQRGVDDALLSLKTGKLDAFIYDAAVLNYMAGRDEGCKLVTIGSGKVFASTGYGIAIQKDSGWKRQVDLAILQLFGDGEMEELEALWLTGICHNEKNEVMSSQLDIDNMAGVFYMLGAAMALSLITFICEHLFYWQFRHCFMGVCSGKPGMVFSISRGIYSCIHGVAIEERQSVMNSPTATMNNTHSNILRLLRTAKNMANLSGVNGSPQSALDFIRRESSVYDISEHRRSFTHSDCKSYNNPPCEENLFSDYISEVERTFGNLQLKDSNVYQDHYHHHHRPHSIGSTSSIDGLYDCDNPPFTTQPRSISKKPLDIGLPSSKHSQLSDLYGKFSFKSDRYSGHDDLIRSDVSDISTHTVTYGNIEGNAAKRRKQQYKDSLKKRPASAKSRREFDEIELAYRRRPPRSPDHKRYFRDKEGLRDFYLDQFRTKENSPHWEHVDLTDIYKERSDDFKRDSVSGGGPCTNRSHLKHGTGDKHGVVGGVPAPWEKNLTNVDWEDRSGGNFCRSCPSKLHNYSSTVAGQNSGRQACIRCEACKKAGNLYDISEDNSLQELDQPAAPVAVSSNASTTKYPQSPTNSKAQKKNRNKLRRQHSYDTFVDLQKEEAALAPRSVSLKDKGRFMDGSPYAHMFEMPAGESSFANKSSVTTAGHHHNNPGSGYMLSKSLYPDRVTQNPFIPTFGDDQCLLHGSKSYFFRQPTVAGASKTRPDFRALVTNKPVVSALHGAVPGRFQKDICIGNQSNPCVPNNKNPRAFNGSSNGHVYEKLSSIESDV

C[C@H](N[C@@H](c1cccc2[nH]c(=O)c(=O)[nH]c12)P(=O)(O)O)c1ccc(Br)cc1 [NVP-AAM077]
IC50 [1]: 119 nM | IC50 [2]: 10 nM
